Test results reported in ChEMBL document CHEMBL1123480, “Pyrazole derivatives. 5. Synthesis and antineoplastic activity of 3-(2-chloroethyl)-3,4-dihydro-4-oxopyrazolo[5,1-d]-1,2,3, 5-tetrazine-8-carboxamide and related compounds” (J Med Chem, 1986).
Calls of active or inactive are those of the source.

Assays:
[1] = organism: Mus musculus; experiment: Antineoplastic activity against mammary adenocarcinoma M16c cell; IA=Inactive; format: functional
[2] = test system: L1210; experiment: Antineoplastic activity against L1210 cell line; IA=Inactive; format: functional, cell-based; details: Mus musculus
[3] = test system: P388; experiment: Antineoplastic activity against NCI P388 cell; IA=Inactive; format: functional, cell-based; details: Mus musculus

Measured: Activity

Cn1nnc2c(C(N)=O)cnn2c1=O
inactive: [1] | [2] | [3]
